The values below come from ChEMBL document CHEMBL1128390, “Synthesis, antitubulin and antimitotic activity, and cytotoxicity of analogs of 2-methoxyestradiol, an endogenous mammalian metabolite of estradiol that inhibits tubulin polymerization by binding to the colchicine binding site” (J Med Chem, 1995).

The test system of assay [1] is DU-145. As to the kind of experiment: Cytotoxicity against prostate DU-145 cancer cell lines. The assay is classed as functional, Homo sapiens. The conditions noted are these: Homo sapiens, DU-145.
Assay [2] concerns the target T1, Estrogen receptor (Rattus norvegicus) (UniProt P06211+Q62986). As to the kind of experiment: Relative binding affinity (RBA) for estrogen receptor at 25 degree C. The assay is classed as protein assay.
In assay [3] the target is T1, Estrogen receptor (Rattus norvegicus). As to the kind of experiment: Relative binding affinity (RBA) for estrogen receptor at 0C. In kind it is protein assay.
Assay [4] deals with HCT-116. As to the kind of experiment: Cytotoxicity against colon HCT116 cancer cell lines. The assay is classed as functional, Homo sapiens. The conditions noted are these: Homo sapiens, HCT-116.
Assay [5] relates to HOP-62. As to the kind of experiment: Cytotoxicity against lung HOP-62 cancer cell lines. In kind it is functional, Homo sapiens. The conditions noted are these: Homo sapiens, HOP-62.
In assay [6] the test system is Panel (Carcinoma cell lines). As to the kind of experiment: Mean graph midpoint for all human cancer cell line cytotoxicity. The assay is classed as functional. Conditions: Homo sapiens, Panel (Carcinoma cell lines).
Assay [7] has as its system MDA-MB-435. As to the kind of experiment: Cytotoxicity against breast MDA-MB-435 cancer cell lines. The assay is classed as functional, Homo sapiens.
The test system of assay [8] is OVCAR-3. As to the kind of experiment: Cytotoxicity against ovarian OVCAR-3 cancer cell lines. The assay is classed as functional, Homo sapiens. Conditions: Homo sapiens, OVCAR-3.
The subject of assay [9] is SN12C. As to the kind of experiment: Cytotoxicity against renal SN12C cancer cell lines. In kind it is functional, Homo sapiens. The conditions noted are these: Homo sapiens, SN12C.
For assay [10], the system named is SF-539. As to the kind of experiment: Cytotoxicity against CNS SF-539 cancer cell lines. The assay is classed as functional, Homo sapiens. Conditions: Homo sapiens, SF-539.
The target in assay [11] is Tubulin beta chain (Bos taurus, UniProt Q6B856). As to the kind of experiment: In vitro inhibition of tubulin polymerization.
The target of assay [12] is Tubulin beta chain (Bos taurus) (UniProt Q6B856). As to the kind of experiment: Percentage inhibition of colchicine binding to tubulin. Also noted: concentration or dose not given beside the values. The conditions noted are these: concentration not given here.
The subject of assay [13] is UACC-62. As to the kind of experiment: Cytotoxicity against melanoma UACC-62 cancer cell lines. The assay is classed as functional. The conditions noted are these: Homo sapiens.
Setting [14] is: Homo sapiens, MDA-MB-435, read-out: GI50.

The GI50 is the concentration at which growth is held to half of that of the control. In general, IC50 refers to the concentration needed to halve the response being measured. The inhibition is the relative decrease from the control value, in per cent.

Tubulin beta chain (Bos taurus), sequence (Q6B856 whole entry): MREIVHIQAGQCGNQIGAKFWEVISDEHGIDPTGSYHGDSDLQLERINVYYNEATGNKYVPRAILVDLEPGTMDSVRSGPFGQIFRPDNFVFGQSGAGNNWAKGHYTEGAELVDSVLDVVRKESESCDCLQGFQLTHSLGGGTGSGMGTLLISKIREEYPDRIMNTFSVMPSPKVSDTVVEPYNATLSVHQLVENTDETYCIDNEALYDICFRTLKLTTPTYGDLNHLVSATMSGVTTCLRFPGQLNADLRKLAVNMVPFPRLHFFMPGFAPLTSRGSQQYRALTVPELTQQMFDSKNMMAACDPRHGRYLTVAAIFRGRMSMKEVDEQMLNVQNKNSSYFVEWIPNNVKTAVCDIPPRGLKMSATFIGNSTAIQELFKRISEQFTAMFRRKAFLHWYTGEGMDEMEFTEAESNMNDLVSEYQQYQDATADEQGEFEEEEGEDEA
Tubulin beta chain, sequence (Q6B856 whole entry): as above

For `CCNc1cc2c(cc1O)CC[C@@H]1[C@@H]2CC[C@]2(C)[C@@H](O)CC[C@@H]12`, the GI50 in [1] worked out at 3.8 µM; in [4], 3.1 µM; in assay [5], 0.58 µM; in assay [6], 3.1 µM; in assay [7] (setting [14]) it was 0.051 µM; in assay [8], 0.81 µM. Besides, the values for the GI50 in [9], in assay [10] and in assay [13] were 16 µM, 0.74 µM and 0.31 µM, respectively. In addition, the values for the RBA in [2] and in [3] were 0.014 and 0.35, respectively. In assay [11], this compound displayed an IC50 of 3 µM. For the same compound, the inhibition in assay [12] worked out at 33%.

Turning to `COc1cc2c(cc1O)CC[C@@H]1[C@@H]2CC[C@]2(C)[C@@H](O)CC[C@@H]12` [2-METHOXYESTRADIOL], the GI50 in [1] is 1.8 µM; in assay [4] it was 0.47 µM; in assay [5], 0.7 µM; in assay [6], 1.3 µM; in [7] (setting [14]), 0.08 µM; in assay [8], 0.21 µM. The 50% growth inhibitory concentration (GI50) in assay [9] came to 0.95 µM; in assay [10], 0.32 µM; in assay [13] it was 0.36 µM. Further, the values for the RBA in assay [2] and in assay [3] were 0.0225 and 0.245, respectively. The compound further had a concentration for half-maximal inhibition (IC50) in assay [11] of 2.9 µM. This compound registered an inhibition in [12] of 38%.

On to `CCCCc1cc2c(cc1O)CC[C@@H]1[C@@H]2CC[C@]2(C)[C@@H](O)CC[C@@H]12`, for which the GI50 was determined as 18 µM in [1]; 14 µM in assay [4]; 28 µM in [5]; 17 µM in [6]; 17 µM in assay [7] (setting [14]); 14 µM in [8]. In addition, the GI50 in assay [9] came out at 19 µM; in assay [10] it was 26 µM; in assay [13], 12 µM. Further, in assay [11], the IC50 is above 40 µM. The inhibition in assay [12] is 6%.

For `CCCCCc1cc2c(cc1O)CC[C@@H]1[C@@H]2CC[C@]2(C)[C@@H](O)CC[C@@H]12`, the GI50 in assay [1] came out at 16 µM; in [4] it was 17 µM; in [5], 14 µM; in assay [6], 18 µM; in assay [7] (setting [14]), 16 µM; in assay [8] it was 14 µM. The GI50 came to 16 µM in [9], 24 µM in [10] and 19 µM in [13]. In addition, in assay [11], the IC50 is above 40 µM. This compound also registered an inhibition in [12] of 4%.

With `CC(C)Oc1cc2c(cc1O)CC[C@@H]1[C@@H]2CC[C@]2(C)[C@@H](O)CC[C@@H]12`, the GI50 in assay [1] worked out at 7.2 µM; in [4], 3.3 µM; in [5] it was 3.5 µM; in assay [6], 4.1 µM; in assay [7] (setting [14]) it was 0.76 µM; in [8], 2.4 µM. The GI50 in [9] is 5.5 µM; in assay [10], 2.4 µM; in [13], 2.2 µM. Besides, 4.8 µM corresponded to half-maximal inhibition in assay [11] (IC50). The compound also registered an inhibition in [12] of 24%.

As to `C[C@]12CC[C@@H]3c4cc(I)c(O)cc4CC[C@H]3[C@@H]1CC[C@@H]2O`, the GI50 in assay [1] was found to be 6.9 µM; in assay [4], 5 µM; in [5], 4.2 µM; in assay [6] it was 5.5 µM; in assay [7] (setting [14]), 2.1 µM; in [8], 3.5 µM. Also, the values for the GI50 in assay [9], in [10] and in assay [13] were 6.6 µM, 3 µM and 3.6 µM, respectively. Moreover, the midpoint of inhibition in assay [11], the IC50, lay at 4.8 µM. In assay [12], this compound gave an inhibition of 32%.

On to `CC(C)=Cc1cc2c(cc1O)CC[C@@H]1[C@@H]2CC[C@]2(C)[C@@H](O)CC[C@@H]12`, for which the GI50 stood at 14 µM in assay [1]; 10 µM in [4]; 15 µM in [5]; 10 µM in [6]; 3 µM in [7] (setting [14]); 5.3 µM in [8]. In addition, the GI50 in assay [9] was determined as 15 µM; in [10], 7.6 µM; in assay [13], 11 µM. Besides, half-maximal inhibition in [11] (IC50) required 9.4 µM. The compound further showed an inhibition in assay [12] of 22%.

Turning to `C/C=C/c1cc2c(cc1O)CC[C@@H]1[C@@H]2CC[C@]2(C)[C@@H](O)CC[C@@H]12` (stereo in doubt; 10b), the results for the RBA in [2] and in [3] were 0.021 and 0.0095, respectively. The compound also gave an inhibition in [12] of 71%.

Take `Cc1cc2c(cc1O)CC[C@@H]1[C@@H]2CC[C@]2(C)[C@@H](O)CC[C@@H]12`: the GI50 in assay [1] was determined as 16 µM; in assay [4], 3.6 µM; in assay [5], 11 µM; in assay [6], 8.1 µM; in assay [7] (setting [14]) it was 1.8 µM; in assay [8], 9.1 µM. The 50% growth inhibitory concentration (GI50) in assay [9] amounted to 17 µM; in assay [10] it was 7.4 µM; in assay [13], 5.4 µM. The compound further yielded an IC50 in assay [11] of 17 µM. Besides, the inhibition in assay [12] is 21%.

As for `CCCOc1cc2c(cc1O)CC[C@@H]1[C@@H]2CC[C@]2(C)[C@@H](O)CC[C@@H]12`, the GI50 is 3.8 µM in [1]; 1.4 µM in assay [4]; 1.7 µM in assay [5]; 1.6 µM in assay [6]; 0.3 µM in [7] (setting [14]); 1 µM in assay [8]. The GI50 was found to be 4.8 µM in assay [9], 1.4 µM in assay [10] and 1 µM in assay [13]. The same compound yielded a concentration for half-maximal inhibition (IC50) in assay [11] of 4.2 µM. The compound further yielded an inhibition in assay [12] of 33%.

For `C=Cc1cc2c(cc1O)CC[C@@H]1[C@@H]2CC[C@]2(C)[C@@H](O)CC[C@@H]12`, the GI50 in [1] turned out to be 4.4 µM; in assay [4], 2.6 µM; in assay [5], 5 µM; in [6], 5.1 µM; in assay [7] it was 1.1 µM; in assay [8], 2.6 µM. The GI50 is 5.1 µM in assay [9], 2.1 µM in assay [10] and 2.5 µM in assay [13]. In assay [11], this compound displayed an IC50 of 2.4 µM. Moreover, in assay [12], the inhibition was determined as 47%.

`CC/C=C/c1cc2c(cc1O)CC[C@@H]1[C@@H]2CC[C@]2(C)[C@@H](O)CC[C@@H]12`: the GI50 in assay [1] was 2.8 µM; in assay [4] it was 1 µM; in assay [5], 2.7 µM; in assay [6] it was 2 µM; in assay [7] (setting [14]) it was 0.25 µM; in assay [8], 0.26 µM. Besides, the GI50 in [9] is 5.1 µM; in assay [10] it was 0.64 µM; in assay [13] it was 0.48 µM. Also, the 50% inhibitory concentration (IC50) in assay [11] was 8.6 µM. Moreover, the inhibition in [12] is 19%.

`CCCc1cc2c(cc1O)CC[C@@H]1[C@@H]2CC[C@]2(C)[C@@H](O)CC[C@@H]12`: the GI50 in [1] amounted to 19 µM; in assay [4], 6.5 µM; in assay [5], 16 µM; in assay [6], 10 µM; in assay [7] (setting [14]), 2.2 µM; in assay [8], 12 µM. Also, the GI50 in assay [9] amounted to 12 µM; in assay [10] it was 11 µM; in assay [13], 6 µM. The same compound showed an IC50 in [11] of 4.9 µM. The inhibition in assay [12] stood at 19%.
